“And” between values parts separate entries of the source, which are not always exact repeats. Equal entries are not always repeated.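 The compound was tested at five concentrations on cells cultured in 96-well plates, with a 48-hour exposure period. At the GI50, growth is halved. At the TGI there is no net growth.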
Experiments:
Test in all cases: NCI-60 cell line screen, 48 h
786-0 renal = tested on: 786-0 renal
A498 renal = tested on: A498 renal
A549 NSCLC = tested on: A549 NSCLC
ACHN renal = tested on: ACHN renal
BT-549 breast = tested on: BT-549 breast
CAKI-1 renal = tested on: CAKI-1 renal
CCRF-CEM leukemia = tested on: CCRF-CEM leukemia
COLO 205 colon = tested on: COLO 205 colon
DU-145 prostate = tested on: DU-145 prostate
EKVX NSCLC = tested on: EKVX NSCLC
HCC-2998 colon = tested on: HCC-2998 colon
HCT-116 colon = tested on: HCT-116 colon
HCT-15 colon = tested on: HCT-15 colon
HL-60(TB) leukemia = tested on: HL-60(TB) leukemia
HOP-62 NSCLC = tested on: HOP-62 NSCLC
HOP-92 NSCLC = tested on: HOP-92 NSCLC
HS 578T breast = tested on: HS 578T breast
HT29 colon = tested on: HT29 colon
IGROV1 ovarian = tested on: IGROV1 ovarian
K-562 leukemia = tested on: K-562 leukemia
LOX IMVI melanoma = tested on: LOX IMVI melanoma
M14 melanoma = tested on: M14 melanoma
MALME-3M melanoma = tested on: MALME-3M melanoma
MCF7 breast = tested on: MCF7 breast
MDA-MB-231 breast = tested on: MDA-MB-231 breast
MDA-MB-435 = tested on: MDA-MB-435
MDA-N = tested on: MDA-N
MOLT-4 leukemia = tested on: MOLT-4 leukemia
NCI-H226 lung = tested on: NCI-H226 lung
NCI-H23 lung = tested on: NCI-H23 lung
NCI-H460 lung = tested on: NCI-H460 lung
NCI-H522 lung = tested on: NCI-H522 lung
NCI/ADR-RES ovarian = tested on: NCI/ADR-RES ovarian
OVCAR-3 ovarian = tested on: OVCAR-3 ovarian
OVCAR-4 ovarian = tested on: OVCAR-4 ovarian
OVCAR-5 ovarian = tested on: OVCAR-5 ovarian
OVCAR-8 ovarian = tested on: OVCAR-8 ovarian
RPMI-8226 leukemia = tested on: RPMI-8226 leukemia
RXF 393 renal = tested on: RXF 393 renal
SF-268 CNS = tested on: SF-268 CNS
SF-295 CNS = tested on: SF-295 CNS
SF-539 CNS = tested on: SF-539 CNS
SK-MEL-2 melanoma = tested on: SK-MEL-2 melanoma
SK-MEL-28 melanoma = tested on: SK-MEL-28 melanoma
SK-MEL-5 melanoma = tested on: SK-MEL-5 melanoma
SK-OV-3 ovarian = tested on: SK-OV-3 ovarian
SN12C renal = tested on: SN12C renal
SNB-19 CNS = tested on: SNB-19 CNS
SNB-75 CNS = tested on: SNB-75 CNS
SR leukemia = tested on: SR leukemia
SW-620 colon = tested on: SW-620 colon
T-47D breast = tested on: T-47D breast
TK-10 renal = tested on: TK-10 renal
U251 CNS = tested on: U251 CNS
UACC-257 melanoma = tested on: UACC-257 melanoma
UACC-62 melanoma = tested on: UACC-62 melanoma
UO-31 renal = tested on: UO-31 renal
KM12 colon = tested on: KM12 colon
PC-3 prostate = tested on: PC-3 prostate

COc1cc(-c2cc(=O)c3c(OC)c(OC)c(OC)c(OC)c3o2)cc(OC)c1OC
TGI (786-0 renal): > 100 µM | TGI (A498 renal): 85.2 µM | TGI (A549 NSCLC): > 100 µM | TGI (ACHN renal): > 100 µM | TGI (BT-549 breast): > 100 µM | TGI (CAKI-1 renal): > 100 µM | TGI (CCRF-CEM leukemia): > 100 µM | TGI (COLO 205 colon): 40 µM | TGI (DU-145 prostate): > 100 µM | TGI (EKVX NSCLC): > 100 µM | TGI (HCC-2998 colon): > 100 µM | TGI (HCT-116 colon): > 100 µM | TGI (HCT-15 colon): > 100 µM | TGI (HL-60(TB) leukemia): 67.5 µM | TGI (HOP-62 NSCLC): > 100 µM | TGI (HOP-92 NSCLC): 86.6 µM | TGI (HS 578T breast): > 100 µM | TGI (HT29 colon): > 100 µM | TGI (IGROV1 ovarian): > 100 µM | TGI (K-562 leukemia): > 100 µM | TGI (LOX IMVI melanoma): 83.1 µM | TGI (M14 melanoma): > 100 µM | TGI (MALME-3M melanoma): > 100 µM | TGI (MCF7 breast): > 100 µM | TGI (MDA-MB-231 breast): > 100 µM | TGI (MDA-MB-435): > 100 µM | TGI (MDA-N): > 100 µM | TGI (MOLT-4 leukemia): > 100 µM | TGI (NCI-H226 lung): > 100 µM | TGI (NCI-H23 lung): > 100 µM | TGI (NCI-H460 lung): > 100 µM | TGI (NCI-H522 lung): 51.1 µM | TGI (NCI/ADR-RES ovarian): 84 µM | TGI (OVCAR-3 ovarian): > 100 µM | TGI (OVCAR-4 ovarian): > 100 µM | TGI (OVCAR-5 ovarian): > 100 µM | TGI (OVCAR-8 ovarian): > 100 µM | TGI (RPMI-8226 leukemia): > 100 µM | TGI (RXF 393 renal): > 100 µM | TGI (SF-268 CNS): > 100 µM | TGI (SF-295 CNS): > 100 µM | TGI (SF-539 CNS): > 100 µM | TGI (SK-MEL-2 melanoma): > 100 µM | TGI (SK-MEL-28 melanoma): > 100 µM | TGI (SK-MEL-5 melanoma): 39.5 µM | TGI (SK-OV-3 ovarian): > 100 µM | TGI (SN12C renal): > 100 µM | TGI (SNB-19 CNS): > 100 µM | TGI (SNB-75 CNS): > 100 µM | TGI (SR leukemia): > 100 µM | TGI (SW-620 colon): > 100 µM | TGI (T-47D breast): 70.5 µM | TGI (TK-10 renal): > 100 µM | TGI (U251 CNS): > 100 µM | TGI (UACC-257 melanoma): > 100 µM | TGI (UACC-62 melanoma): 89.5 µM | TGI (UO-31 renal): > 100 µM

N#Cc1c(-c2ccccc2)c(C#N)c(=S)n(C2OC(CO)C(O)C(O)C2O)c1N (stereo not given)
TGI (786-0 renal): > 100 µM | TGI (A498 renal): > 100 µM | TGI (A549 NSCLC): > 100 µM | TGI (ACHN renal): > 100 µM | TGI (BT-549 breast): > 100 µM | TGI (CAKI-1 renal): > 100 µM | TGI (CCRF-CEM leukemia): > 100 µM | TGI (DU-145 prostate): > 100 µM | GI50 (EKVX NSCLC): 44.4 µM and > 100 µM | TGI (EKVX NSCLC): > 100 µM | TGI (HCC-2998 colon): > 100 µM | TGI (HCT-116 colon): > 100 µM | TGI (HCT-15 colon): > 100 µM | TGI (HL-60(TB) leukemia): > 100 µM | GI50 (HOP-62 NSCLC): > 100 µM and 36 µM | TGI (HOP-62 NSCLC): > 100 µM | GI50 (HOP-92 NSCLC): 42 µM and 21 µM | TGI (HOP-92 NSCLC): > 100 µM | TGI (HS 578T breast): > 100 µM | TGI (HT29 colon): > 100 µM | GI50 (IGROV1 ovarian): > 100 µM and 45.5 µM | TGI (IGROV1 ovarian): > 100 µM | TGI (K-562 leukemia): > 100 µM | TGI (KM12 colon): > 100 µM | TGI (LOX IMVI melanoma): > 100 µM | TGI (M14 melanoma): > 100 µM | TGI (MALME-3M melanoma): > 100 µM | GI50 (MCF7 breast): 91.1 µM and 41.6 µM | TGI (MCF7 breast): > 100 µM | TGI (MDA-MB-231 breast): > 100 µM | TGI (MDA-N): > 100 µM | GI50 (MOLT-4 leukemia): 39.3 µM and > 100 µM | TGI (MOLT-4 leukemia): > 100 µM | TGI (NCI-H226 lung): > 100 µM | TGI (NCI-H23 lung): > 100 µM | TGI (NCI-H460 lung): > 100 µM | TGI (NCI-H522 lung): > 100 µM | TGI (OVCAR-3 ovarian): > 100 µM | TGI (OVCAR-4 ovarian): > 100 µM | TGI (OVCAR-5 ovarian): > 100 µM | TGI (OVCAR-8 ovarian): > 100 µM | TGI (PC-3 prostate): > 100 µM | TGI (RPMI-8226 leukemia): > 100 µM | TGI (RXF 393 renal): > 100 µM | TGI (SF-268 CNS): > 100 µM | TGI (SF-295 CNS): > 100 µM | TGI (SF-539 CNS): > 100 µM | TGI (SK-MEL-2 melanoma): > 100 µM | TGI (SK-MEL-28 melanoma): > 100 µM | TGI (SK-MEL-5 melanoma): > 100 µM | TGI (SN12C renal): > 100 µM | TGI (SNB-19 CNS): > 100 µM | TGI (SNB-75 CNS): > 100 µM | TGI (SR leukemia): > 100 µM | TGI (SW-620 colon): > 100 µM | TGI (T-47D breast): > 100 µM | GI50 (TK-10 renal): 40.5 µM and > 100 µM | TGI (TK-10 renal): > 100 µM | TGI (U251 CNS): > 100 µM | TGI (UACC-257 melanoma): > 100 µM | TGI (UACC-62 melanoma): > 100 µM | GI50 (UO-31 renal): > 100 µM and 40.3 µM | TGI (UO-31 renal): > 100 µM
